The test system of test [1] is cancer cells. Put plainly: Lactate production and glucose consumption of cancer cells. The format is cell-based. To be noted: metformin treatment. The procedure: (§1) FIG. 20. […] (F, G) Quantification of oxygen consumption rate normalized by cell numbers of cells cultured in DMEM medium containing the indicated concentrations of glucose for 12 hours (F) or in DMEM medium containing with 2.5 mM glucose for the indicated time points (G).
Lactate production was measured using Lactate Assay Kit (Sigma Aldrich) according to manufacturer's instructions.

The test system of test [2] is PDX models (patient-derived xenografts) from melanoma patients. Put plainly: In vivo growth of melanoma PDX models. Set-up: species or system mice. To be noted: metformin-intermittent fasting combination. The method, then:
CD1 nude mice received single subcutaneous flank injections of 5×10^6 HCT-116 cells or 1×10^5 patient-derived melanoma cells suspended in 200 μl saline. After the tumors were established, mice were randomized in different groups. Mice were kept on the feeding/fasting protocols described. […] Tumor growth was monitored by bi-dimensional measurements using a caliper. Experiments have been done in accordance with the Italian Laws (D.L.vo 116/92 and following additions), which enforces EU 86/609 Directive (Council Directive 86/609/EEC of 24 Nov. 1986 on the approximation of laws, regulations and administrative provisions of the Member States regarding the protection of animals used for experimental and other scientific purposes). Mice have been housed accordingly to the guidelines set out in Commission Recommendation 2007/526/EC—Jun. 18, 2007 on guidelines for the accommodation and care of animals used for experimental and other scientific purposes. Note that nude mice show a strain-specific decline in glucose levels upon fasting, of a higher degree as compared to other commonly used mouse strains (C57B6).

A short description of test [3]: Blood glucose levels in tumor-bearing mice. To be noted: metformin 200 mg/kg oral gavage.
Excerpt: (B-D) The levels of blood glucose measured at the end of each feeding/fasting cycle in different experimental groups. […] Error bars indicate SEM. (n=5 per group).
To this end, mice bearing HCT116 xenografts were distributed into five groups as schematized in FIG. 13; the first two groups were kept on ad libitum feeding while the three other groups were subjected to 24-hour cycles of feeding-fasting. Fasting in those groups was achieved by complete withdrawal of food while allowing free access to water. […] The first of those three groups (Fed/Fast group) received vehicle every 48h to assess the effect of fasting-feeding cycles alone on tumor growth. […] Tumor growth was monitored in all groups.
The test system of test [4] is HCT116 xenograft tumors. The test can be described thus: In vivo growth of HCT116 xenograft tumors. Set-up: species or system mice. The source says:
FIG. 13. […] Error bars indicate SEM.
(§2) FIG. 31. […] (B) Immunoblotting analysis of total cell lysates used for immunoprecipitation in (A).

The subject of test [5] is PP2A-GSK3β-MCL-1 axis. The test can be described thus: Immunoblotting of phosphorylated GSK3β, MCL-1 and CIP2A. The test is classed as cell-based. The settings on record: HCT116 and HeLa. The procedure:
FIG. 16. […] (A, B) Immunoblotting analysis of lysates derived from HCT116 and HeLa cells cultured for 24 hours in either nutrient-rich DMEM (containing 10% FBS and 10 mM glucose), DMEM containing 2.5 mM glucose (glucose deprivation), DMEM with 0.1% serum (serum deprivation) or DMEM with no glutamine, no methionine and no cysteine (amino acids deprivation). Media were replenished every 6 hours.
as §2
Whole cell lysates were prepared by directly lysing cells growing in culturing dishes or collected cell pellets in lysis buffer (40 mM Hepes pH 7.5, 120 mM NaCl, 1 mM EDTA, 10 mM pyrophosphate, 10 mM glycerophosphate, 50 mM NaF, 0.5 mM orthovanadate, and EDTA-free protease inhibitors (Roche) containing 0.3% CHAPS). Lysates were prepared from frozen tumors using GentleMACS dissociator. Lysates were cleared by centrifugation at 13000 g for 15 min. at 4° C., quantified using BioRad DC protein assay reagent followed by mixing 1:1 with 4% SDS, 100 mM Tris.Cl pH 6.8, 20% glycerol, 0.1% bromophenol blue and 5% β-mercaptoethanol added immediately before use and heating at 94° C. for 7 min. Equal amounts of proteins were then electrophoresed on 8-15% SDS-PAGE gels. Gels were run at 100 V (stacking gel)/150 V (separation gel) on Protean III apparatus (BioRad). Gels were transferred onto nitrocellulose and probed with the appropriate primary antibody for a variable incubation time depending on the experimental design, followed by the corresponding secondary antibodies diluted 1:5000-10000. The proteins were visualized by enhanced chemiluminescence (ECL) using ChemiDoc apparatus (BioRad) according to the manufacturer's instructions.
For orientation: A western blot detects proteins with antibodies after separation by electrophoresis.

The test system of test [6] is Bx-PC3 pancreatic cancer cells. The format is cell-based. To be noted: metformin in combination with low glucose, 24, 48 and 72 hrs.
Test [7] relates to cancer cell lines representative of different cancer types. Put plainly: Proliferation of cancer cell lines by CellTiter-Glo assay. To be noted: nutrient-rich conditions. The test is classed as cell-based. The procedure:
as §1
CellTiter Glo Luminescent Cell Viability Assay (Promega) was used according to manufacturer's protocol. Briefly, cells were plated in 96 well plates, treated 24h later with different doses of drugs in total volume of 100 μl. 24h later, 100 μl of CellTiter Glo reagent was added to the cells and incubated for 15 min at 37° C. and luminescence was measured using a Promega plate reader.
A general note: ATP-based viability assays read luminescence as a measure of living cells.

For test [8], the system named is BON-1 neuroendocrine tumor cells. The test can be described thus: BON-1 cell viability. To be noted: metformin with low (2.5 mM) glucose. The format is cell-based. The source says:
FIG. 57. […] The assay as performed as described in the other examples.

The test system of test [9] is yeast cells undergoing chronological aging. The test can be described thus: Chronological lifespan (CLS) with UV: DDR, NER, viability. The test is classed as cell-based, S. cerevisiae. To be noted: UV 40 J/m^2; rapamycin 2 ng/ml or metformin 80 mM. The method, then:
Both drugs were supplemented at the initial overnight culture stage (Day 0), prior to cells entering stationary phase. In experiments including rapamycin-treated cultures, DMSO (0.04%) was used in the untreated cultures. For each chronological aging experiment, cells were set up in synthetic complete medium (SDC) and allowed to grow overnight at 28° C. to reach exponentially growing conditions the next day (day 1) until the end of kinetics (day 10/11 for DDR and NER analysis, day 21-28 for viability). At each examined day, small aliquots of cells were removed, exposed to 40 J/m^2 and further incubated in their exhausted medium. Samples were taken at untreated (prior to UV), 0 and 2 hours (for protein extraction) or 0, 6 and 24 hours (for genomic DNA extraction) after UV treatment.
PP2A targets: Gln3-myc, Npr1-myc, Nnk1-myc were all separated on NuPage precast 3-8% SDS gels. PonceauS staining was used as a loading control.
Cells were fixed in one volume of ice-cold 100% ethanol and incubated on ice for 5′. Genomic DNAs were then prepared following standard procedure. Equal amounts of DNA were loaded on 0.8% agarose gel, transferred by Southern blot onto nitrocellulose membrane (Amersham Protran 0.45μ) and cross-linked by baking 1 hour at 80° C.
Lifespan Viability Assays were Carried as Follows: Aliquots of Cells were Removed Throughout the CLS kinetics, serially diluted and spotted on YPD plates. The plates were then exposed to 40 J/m^2 (or 20 J/m^2 in some cases), incubated at 25° C. and scanned after 3 days. In FIGS. 33, 34 and 36 individual spot assay rows were cut out for space reasons, but the compared strains were always from the same plates.

As to `CN(C)C(=N)NC(=N)N.Cl` [metformin], in test [1], the “glucose consumption and lactate production” value was “dose and time-dependent increase in glucose consumption and lactate production”. For the same molecule, in [2], the “tumor growth in PDX models” value is “also works on PDX models of tumor”. The blood glucose levels result in [3] is on record as “reduced blood glucose levels but to a much less extent than that induced by fasting”. Moreover, the tumor growth entry is given as “dramatically impeded” in [4] (metformin 200 mg/kg every 48 h during fasting cycles (Met/Fast)) and “did not exert any significant tumor restraining effect” in test [4] (metformin alone, ad libitum feeding, 200 mg/kg oral gavage). The GSK3β phosphorylation entry in test [5] (low glucose-metformin combination) is given as “almost completely abolished GSK3β phosphorylation”. For the same molecule, in test [5] (metformin in low glucose), the MCL-1 protein levels result is “marked reduction in MCL-1 protein levels”. Further, in [5] (metformin treatment), the “level of CIP2A” value is recorded as “reduction in the level of CIP2A”. The “sensitization by RAD51 knockdown” value in test [6] is listed as “dramatically sensitizes”. The anti-proliferative effect entry in test [7] is recorded as “only weak anti-proliferative effects”. Further, the cell viability result in test [8] was “reduction in cell viability”. Moreover, in test [9], the “DDR, NER and lifespan during chronological aging” value is “improve DDR and promote longevity but not NER”.
